Assay results published in paper PMC9821162 (International Journal of Molecular Sciences, 2023).
Read-outs that look alike come from different tables or passages of the source.

Assays:
[1] = tested on: HGF mRNA; experiment: Real-time PCR of HGF mRNA in MDA-MB-231 cells; type: cell-based, human; settings: in vitro
Experimental: (§1) In vitro, MDA-MB-231 cells were prepared as described above. […] Tumors were obtained from three mice per group at 0, 3, 6, 9, and 12 days. The total RNA was extracted using an RNA isolation kit (Takara, Shiga, Japan) according to the manufacturer’s instructions. cDNA was synthesized from 2 μg of RNA using a reverse transcriptase M-MLV synthesis kit (Takara). Real-time PCR was performed using the MyiQ5 real-time PCR detection system (Bio-Rad) with SYBR Premix Ex Taq (Takara). The PCR products for human β-actin, […], and HGF were synthesized with the primer pairs FP (forward primer) 5′-[…]-3′ and RP (reverse primer) 5′-[…]-3′ (β-actin, Gene ID: 60), FP 5′-[…]-3′ and RP 5′-[…]-3′ (MET, Gene ID: 4233), as well as FP 5′-[…]-3′ and RP 5′-[…]-3′ (HGF, Gene ID: 3082). All primers were purchased from AuGCT DNA-SYN Biotechnology Co., Ltd. (Dalian, China). Samples were run in triplicate under the following conditions: an initial denaturation for 30 s at 95 °C, followed by 45 cycles of 15 s at 95 °C, 30 s at 60 °C, and 33 s at 72 °C. The levels of gene expression in each sample were normalized to β-actin mRNA.

[2] = tested on: HGF mRNA; experiment: Real-time PCR of HGF mRNA in MDA-MB-231 xenograft tumors; type: in vivo, nude mice (MDA-MB-231 human breast cancer xenograft); parameters: dose or concentration left out as unconfirmed; settings: tumors at 0, 3, 6, 9, 12 days
Experimental: as §1

[3] = tested on: MET mRNA; parameters: species or system nude mice (MDA-MB-231 human breast cancer xenograft); settings: in vivo
[4] = Pharmacokinetic study in tumor-bearing nude mice (LC-MS/MS); type: in vivo; settings: plasma; for AUC(0-inf) / AUC(0-t) / Cmax / Tmax / half-life / MRT: nude, mouse; for MRT: read-out: MRT (mean resident time)
Experimental: Data processing was performed with Phoenix WinNonlin 8.1.0.3530 (Pharsight Corporation, Mountain View, CA, USA).

[5] = tested on: MET mRNA; experiment: Real-time PCR of MET mRNA in MDA-MB-231 cells; type: cell-based, human; settings: in vitro
Experimental: as §1

[6] = tested on: p-MET; settings: cited from earlier work
[7] = tested on: MDA-MB-231 cells; settings: in vitro, cited from earlier work
[8] = tested on: MDA-MB-231 xenograft tumors; experiment: Tumor growth inhibition assay, MDA-MB-231 tumor xenograft model; type: in vivo, BALB/c nude mice; settings: for tumor inhibitory rate: day 18, n = 6; for mean tumor volume: day 18, vehicle group 285.00 ± 30.82 mm^3
Experimental: MDA-MB-231 cells (2 × 10^7) were suspended in 200 μL of PBS (pH 7.4) and were inoculated subcutaneously into the second mammary fat pads of the nude mice. The tumor diameter was measured with a vernier caliper and converted into tumor volume using the formula 1/2 × A × B^2 (A = larger diameter, B = smaller diameter). The treatment was started when the average tumor volume reached 50 mm^3.
Xenograft mice were randomly divided into three groups, with six in each group. […] The blank control group received only the vehicle solution. The tumor size and body weight were measured every three days. After 18 days of treatment, the animals were euthanized by cervical displacement. The tumors were collected after the final treatment and frozen at −80 °C until use.

[9] = tested on: HGF; experiment: Immunohistochemical staining (IOD) of HGF in tumor tissue; type: in vivo, nude mice (MDA-MB-231 human breast cancer xenograft); settings: 15 and 50 mg/kg for 18 days
Experimental: After the paraffin sections of tumors were deparaffinized, rehydrated, and washed with PBS (pH 7.4), antigen retrieval was performed by boiling the sections in 10 mmol/L sodium citrate buffer (pH 6.0) in the microwave for 4 min. The endogenous peroxidase activity was quenched by placing the slides in 3% hydrogen peroxide in methanol. The slides were then blocked with 3% BSA-PBS, followed by incubation with a 1:425 dilution of the primary antibody of p-MET and HGF (Cell Signaling Technology, Danvers, MA, USA) overnight at 4 °C. Thereafter, the detection was performed using a biotin-conjugated secondary antibody and a streptavidin-horseradish peroxidase conjugate (SA-HRP), followed by colorimetric detection using diaminobenzidine (DAB). The sections were counterstained with hematoxylin and stabilized with a mounting medium. The immunohistochemical images with integrated optical density (IOD) of positive expression, which reflected the distribution characteristics of anti-p-MET and anti-HGF positive stained area in tumor tissues, were quantitatively analyzed using Image-Pro Plus version 6.0 (Media Cybernetics, Inc., Silver Spring, MD, USA).

[10] = tested on: MET; settings: cited from earlier work
[11] = tested on: p-MET; experiment: Immunohistochemical staining (IOD) of p-MET in tumor tissue; type: in vivo, nude mice (MDA-MB-231 human breast cancer xenograft); settings: 15 and 50 mg/kg for 18 days

COc1cc2c(Oc3ccc(NC(=O)C4(C(=O)Nc5ccc(F)cc5)CC4)cc3F)ccnc2cc1OCCCN1CCOCC1 [Foretinib]
mRNA expression level of HGF [1]: effectively suppressed
mRNA expression level of HGF [2]: effectively suppressed
mRNA expression level of MET [3]: effectively suppressed
AUC(0-inf) ([4]; single oral dose 2 mg/kg): 407 ± 63.4 ng·h/mL
AUC(0-t) ([4]; single oral dose 2 mg/kg): 366 ± 76.4 ng·h/mL
Cmax ([4]; single oral dose 2 mg/kg): 22.2 ± 11.2 ng/mL
Tmax ([4]; single oral dose 2 mg/kg): 4 h
half-life ([4]; single oral dose 2 mg/kg): 15.1 ± 2.49 h
MRT ([4]; single oral dose 2 mg/kg): 20.1 ± 5.05 h
AUC(0-inf) ([4]; single oral dose 10 mg/kg): 7260 ± 108 ng·h/mL
AUC(0-t) ([4]; single oral dose 10 mg/kg): 6210 ± 423 ng·h/mL
Cmax ([4]; single oral dose 10 mg/kg): 334 ± 107 ng/mL
Tmax ([4]; single oral dose 10 mg/kg): 2 h
half-life ([4]; single oral dose 10 mg/kg): 19.9 ± 6.72 h
MRT ([4]; single oral dose 10 mg/kg): 25.1 ± 8.36 h
AUC(0-inf) ([4]; single oral dose 50 mg/kg): 13000 ng·h/mL
AUC(0-t) ([4]; single oral dose 50 mg/kg): 12600 ng·h/mL
Cmax ([4]; single oral dose 50 mg/kg): 1430 ± 744 ng/mL
Tmax ([4]; single oral dose 50 mg/kg): 0.5 h
half-life ([4]; single oral dose 50 mg/kg): 9.48 ± 0.045 h
MRT ([4]; single oral dose 50 mg/kg): 13.3 ± 0.73 h
Vd (volume of distribution) ([4]; single oral dose 2 mg/kg): 109.72 ± 34.73 L/kg
k (elimination constant) ([4]; single oral dose 2 mg/kg): 0.046 ± 0.008 h⁻¹
Vd (volume of distribution) ([4]; single oral dose 10 mg/kg): 39.76 ± 13.95 L/kg
k (elimination constant) ([4]; single oral dose 10 mg/kg): 0.037 ± 0.012 h⁻¹
Vd (volume of distribution) ([4]; single oral dose 50 mg/kg): 60.90 ± 31.53 L/kg
k (elimination constant) ([4]; single oral dose 50 mg/kg): 0.073 ± 0.0003 h⁻¹
mRNA expression level of MET [5]: effectively suppressed
expression of p-MET in MDA-MB-231 [6]: remarkably inhibit
apoptosis ([7]; MDA-MB-231 cells): induce marked apoptosis
cell cycle arrest ([7]; MDA-MB-231 cells): arrest cancer cells mainly in the G2/M phase
cell viability of MDA-MB-231 [7]: can decrease the cell viability
tumor inhibitory rate ([8]; 15 mg/kg/day intragastric): 42.79 ± 8.52%
tumor inhibitory rate ([8]; 50 mg/kg/day intragastric): 79.16 ± 4.58%
mean tumor volume ([8]; high dose group (50 mg/kg/day)): 80.67 ± 17.00 mm^3
mean tumor volume ([8]; low dose group (15 mg/kg/day)): 220.00 ± 70.14 mm^3
HGF expression in the tumor tissues (IHC staining, IOD) [9]: decreased in a dose-dependent manner
expression of MET in MDA-MB-231 [10]: remained unchanged
p-MET expression in the tumor tissues (IHC staining, IOD) [11]: decreased in a dose-dependent manner
